Source: ChEMBL document CHEMBL4715926, “Synthesis of Resolvin E1 and Its Conformationally Restricted Cyclopropane Congeners with Potent Anti-Inflammatory Effect” (2021)
Calls of active or inactive are those of the source. No cut-off for these calls is given here.

Test system: Mus musculus
Assay: Antiinflammatory activity in BALB/c mouse assessed as inhibition of heat killed Propionibacterium acnes-induced neutrophil influx at 300 pg, ip administered 12 hrs after Propionibacterium acnes stimulation and measured after 24 hrs by flow cytometry analysis
Format: functional

CC[C@@H](O)/C=C/C=C\C[C@@H](O)/C=C/C=C/C=C\[C@@H](O)[C@@H]1C[C@@H]1C(=O)O was tested, and the inhibition was “Active”.
CC[C@@H](O)/C=C/C=C\C[C@@H](O)/C=C/C=C/C=C\[C@@H](O)[C@H]1C[C@H]1C(=O)O was tested, and the inhibition was “Active”.
CC[C@@H](O)/C=C/C=C\C[C@@H](O)/C=C/C=C/C=C\[C@@H](O)CCCC(=O)O [RESOLVIN E1] was tested, and the “inhibition (INH)” value was 31%.
For CC[C@@H](O)/C=C/C=C\C[C@@H](O)/C=C/C=C/C=C\[C@@H](O)[C@@H]1C[C@H]1C(=O)O, the inhibition was “Active”.
CC[C@@H](O)/C=C/C=C\C[C@@H](O)/C=C/C=C/C=C\[C@@H](O)[C@H]1C[C@@H]1C(=O)O was tested, and the “inhibition (INH)” value was 50%.
